The text below walks through data of patent publication US20200113852A1, “METHODS OF PATIENT SELECTION AND TREATING TRXR- OR PRDX-OVEREXPRESSED CANCERS” (TRIACT THERAPEUTICS, INC., priority 2017, published 2020).

Molecules are shown by their SMILES. Read-outs that look alike come from different tables or passages of the source.

The test system of data set [1] is GSH in HCT116 and MDA-MB-453 cell lines. Description: GSH depletion with BSO (GSH-Glo glutathione assay). Format: cell-based, human. To be noted: 1 mM BSO for 18 h, both cell lines. Here is the method: Cells were seeded (96 well plates) at increasing densities, the highest density corresponding to that used for viability studies. […] GSH amount was measured thereafter using GSH-Glo™ glutathione assay.

The nature of data set [2]: Phase I clinical trial GBM, pharmacokinetics. Format: in vivo, human. The conditions noted are these: for Metabolite/iniparib concentration ratio: arithmetic average±SD; for Cmax: geometric mean±SD, plasma. From the text:
No cytochrome P450-inducing anticonvulsants. However, Gliadel was permitted.
Dosing is IV 2×/week continuous.

The test system of data set [3] is HCT116 cells. Description: Iniparib metabolites release, XLC-MS/MS of incubation media. Format: in vitro ADME, human. Set-up: unit not given beside the values. Here is the method:
(§1) Online solid phase extraction (SPE) was performed using the fully automated Spark Holland Symbiosis™ (Emmen, The Netherlands) in eXtraction Liquid Chromatography (XLC) mode. The Symbiosis™ has previously been described in detail (18). HySphere™ C18 HD 7 μm SPE cartridges were used (Spark Holland). Each cartridge was initially conditioned with 2 ml methanol+0.5% formic acid (FA) and then equilibrated with 2 ml water+0.5% FA, both at flow-rates of 4 ml/min. Sample (25 μl) was aspirated and loaded onto the cartridge with 1 ml water+0.5% FA at a flow-rate of 1 ml/min. […] After elution, the right clamp was washed successively with 2 ml water+0.5% FA, 2 ml methanol+0.5% FA and 2 ml water+0.5% FA at 4 ml/min. […] The mobile phase composition was returned to starting conditions over 1 min and maintained during 6 min for column equilibration. The total run time was 27 min. Mass spectrometry was performed using the Thermo® TSQ Quantum Discovery Max in electrospray positive ionization mode (Thermo, US) with the following parameters: capillary voltage=4.0 kV, capillary temperature=300° C., sheath gas pressure=40, auxiliary gas pressure=5.
(§2) All values are expressed as means±SEM of three independent experiments. ND., non detectable.

The test system of data set [4] is MDA-MB-453 cells. Described as above. The format is in vitro ADME, human. Set-up: unit not given beside the values. Here is the method:
as §1, §2

The target of data set [5] is T1, recombinant human GAPDH (Homo sapiens, UniProt P04406).
T1 construct: purchased Acris
T1 sequence (P04406 whole entry): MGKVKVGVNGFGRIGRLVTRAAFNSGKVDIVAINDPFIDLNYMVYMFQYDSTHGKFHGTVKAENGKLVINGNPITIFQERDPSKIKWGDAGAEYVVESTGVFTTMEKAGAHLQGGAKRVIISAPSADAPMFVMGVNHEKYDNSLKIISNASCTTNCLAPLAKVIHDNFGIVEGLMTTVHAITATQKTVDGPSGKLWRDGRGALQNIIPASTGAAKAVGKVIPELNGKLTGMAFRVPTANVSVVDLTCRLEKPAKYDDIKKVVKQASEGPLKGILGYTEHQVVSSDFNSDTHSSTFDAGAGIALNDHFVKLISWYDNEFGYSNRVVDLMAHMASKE
Description: In vitro modification of GAPDH by Iniparib and I-NOBA. Format: binding. Here is the method:
For biochemical analysis, recombinant human GAPDH (Acris) was first reduced by a 15,000-fold excess of DTT at 56° C. for 30 min, the reducing agent being removed thereafter by chloroform/methanol precipitation. […] Afterwards the samples were submitted or not to another reducing step with 25 mM DTT (56° C., 30 min), and after removal of DTT by chloroform/methanol precipitation, biotinylation of free cysteine sulfhydryl groups of GAPDH was performed with HPDP-biotin (N-[6-(Biotinamido)hexyl]-3′-(2′-pyridyldithio)propionamide) at […] for 2 h at 20° C.
Sample mixtures were then reduced or not with 25 mM DTT (56° C., 30 min). Intact molecular weights were measured by mass spectrometry. Liquid chromatography-electrospray ionization mass spectrometry (LC/MS) was carried out using LTQ-Orbitrap Elite mass spectrometer (Thermo Fisher Scientific) coupled to a Famos Autosampler and an Ultimate Pump (LC-Packing, Dionex). Reverse phase chromatography was performed with a binary buffer system consisting of 0.2% formic acid (buffer A) and 80% acetonitrile in 0.2% formic acid (buffer B). After dilution to 1 pmole/μl in 0.2% formic acid, 1 μl of samples were loaded on a Poros 1 R/H column (75 μm×15 cm, Dionex). […] Mass spectra (m/z 500-2,000) were acquired in the positive ITMS mode with 5 μscans accumulation, a target value of 30,000 and a maximum injection time of 100 ms. The acquired raw files were converted in MassLynx format (Waters) using an home-made program and then were deconvoluted using MaxEnt software (Waters).

For data set [6], the target named is T2, human recombinant glutathione S-transferase pi (GSTP1) (Homo sapiens, UniProt P09211).
T2 construct: purchased Acris
T2 sequence (P09211 whole entry): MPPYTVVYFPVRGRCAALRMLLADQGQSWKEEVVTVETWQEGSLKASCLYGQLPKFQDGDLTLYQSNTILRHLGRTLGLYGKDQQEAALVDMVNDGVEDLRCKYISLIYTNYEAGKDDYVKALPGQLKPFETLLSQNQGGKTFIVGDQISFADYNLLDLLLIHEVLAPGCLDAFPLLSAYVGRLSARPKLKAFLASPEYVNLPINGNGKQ
Description: In vitro Iniparib-glutathione conjugation. Format: biochemical. The conditions noted are these: 30 μM, 1 mM GSH, absence of GSTP1. Here is the method: as §1

Data set [7] concerns several cancer cell lines. Description: Cytotoxic activity on several cancer cell lines (preliminary screening). The conditions noted are these: all cell lines.
Data set [8] concerns Trx, JNK, p38MAPK, PARP in HCT116 cells. Description: Cell death signaling western blots (Trx oxidation, phospho-JNK, phospho-p38MAPK, cleaved-PARP).
Description: Cells extracts were analyzed by SDS-PAGE either under reducing conditions or under non-reducing conditions in the case of Trx blot followed by blots anti-phospho-JNK, anti-phospho-p38MAPK, anti-cleaved-PARP and anti-Trx. Results are representative of three independent experiments.
After 2 h at 4° C., lysates were clarified by centrifugation and protein amounts were measured using the BCA assay (Pierce, Thermo scientific).
Equal amounts of proteins were resolved by SDS-PAGE under either non-reducing or reducing (5% 2-mercaptoethanol, 20 min at 60° C.) conditions, using 4-20% gels (Novex, Invitrogen), then subjected to semi-dry electrophoretic transfer onto nitrocellulose membranes.
Setting [9] is: HCT116 w BSO, 1 h after 100 μM Iniparib.
Setting [10] is: HCT116 w BSO, 5 h after 100 μM Iniparib.
Setting [11] is: HCT116 w BSO, 24 h after 100 μM Iniparib.
[12] abbreviates: MDA-MB-453 w BSO, 1 h after 100 μM Iniparib.
Setting [13] is: MDA-MB-453 w BSO, 5 h after 100 μM Iniparib.
The mark [14] stands for this setting: MDA-MB-453 w BSO, 24 h after 100 μM Iniparib.
Setting [15] is: MDA-MB-453 w/o BSO, 24 h after 100 μM Iniparib.

Consider `CCCCS(=N)(=O)CCC(N)C(=O)O` [BSO, L-buthionine sulfoximine], for which the GSH content result in data set [1] is given as “below 5 % of controls”.

`NC(=O)c1ccc(I)c(N)c1` [I-ABM, 4-iodo-3 aminobenzamide]: the Metabolite/iniparib concentration ratio turned out to be 1.1 ± 0.6% in data set [2] (5.1 mg/kg); 0.9 ± 0.6% in data set [2] (6.1 mg/kg); 1.1 ± 0.9% in data set [2] (6.8 mg/kg); 0.3 ± 0.1% in data set [2] (8.0 mg/kg); 0.8 ± 0.6% in data set [2] (8.6 mg/kg); 0.8 ± 0.6% in data set [2] (9.5 mg/kg). Further, the highest concentration (Cmax) was found to be 5.7 ± 4.1 ng/mL in data set [2] (human, 5.1 mg/kg IV 2×/week, read-out: Cmax); 7.2 ± 1.8 ng/mL in data set [2] (human, 6.1 mg/kg IV 2×/week, read-out: Cmax); 8.4 ± 3.7 ng/mL in data set [2] (human, 6.8 mg/kg IV 2×/week, read-out: Cmax); 10.3 ± 2.9 ng/mL in data set [2] (human, 8.0 mg/kg IV 2×/week, read-out: Cmax); 9.7 ± 2.4 ng/mL in data set [2] (human, 8.6 mg/kg IV 2×/week, read-out: Cmax); 13.6 ± 5.3 ng/mL in data set [2] (human, 9.5 mg/kg IV 2×/week, read-out: Cmax). Besides, the “Iniparib and metabolites in incubation media” value (“Iniparib and metabolites” below) in data set [3] (setting [9]) turned out to be 0.3 ± 0.1; in data set [3] (setting [10]), 1.1 ± 0.3; in data set [3] (setting [11]), 4.4 ± 1.2; in data set [3] (HCT116 w/o BSO, 1 h after 100 μM Iniparib), 0.2 ± 0.1; in data set [3] (HCT116 w/o BSO, 5 h after 100 μM Iniparib), 0.4 ± 0.1; in data set [3] (HCT116 w/o BSO, 24 h after 100 μM Iniparib), 0.5 ± 0.2. Moreover, the “Iniparib and metabolites” value in data set [4] (setting [12]) came out at 0.3 ± 0.1; in data set [4] (setting [13]) it was 1.4 ± 0.1; in data set [4] (setting [14]), 5.4 ± 0.2; in data set [4] (MDA-MB-453 w/o BSO, 1 h after 100 μM Iniparib), 0.2 ± 0.0; in data set [4] (MDA-MB-453 w/o BSO, 5 h after 100 μM Iniparib), 0.5 ± 0.2; in data set [4] (setting [15]), 2.6 ± 0.2.

On to `NC(=O)c1ccc(I)c(NO)c1` [I-HABM], for which, in data set [3] (setting [11]), the “Iniparib and metabolites” value is on record as 0.1 ± 0.0.

For `NC(=O)c1ccc(I)c(N=O)c1` [I-NOBA], the “covalent modification of GAPDH (MS analysis)” value in data set [5] (purified GAPDH incubated with compound) was “formation of protein adducts”. In addition, in data set [5] (purified GAPDH, biotin-HPDP labeling, streptavidin-HRP blot), the “blocking of free thiol groups in GAPDH” value is reported as “completely blocked”. The “reaction with GSH” value in data set [6] is “reacted with GSH”. The “cytotoxic activity relative to Iniparib” value in data set [7] was “more active than Iniparib”. In addition, the “Iniparib and metabolites” value in data set [3] (setting [9]) is listed as 4.4 ± 0.0; in data set [3] (setting [10]), 14.6 ± 0.1; in data set [3] (setting [11]), 26.5 ± 2.9; in data set [4] (setting [12]) it was 0.6 ± 0.1; in data set [4] (setting [13]), 3.5 ± 0.7; in data set [4] (setting [14]), 2.9 ± 1.0. Moreover, the “Iniparib and metabolites” value in data set [4] (setting [15]) worked out at 0.2 ± 0.1.

On to `Nc1cc(C(=O)O)ccc1I` [IABA], for which the Cmax in data set [2] (5.1 mg/kg IV 2×/week) was 16.6 ± 5.2 ng/mL; in data set [2] (6.1 mg/kg IV 2×/week), 14.9 ± 8.3 ng/mL; in data set [2] (6.8 mg/kg IV 2×/week), 19.9 ± 6.6 ng/mL; in data set [2] (8.0 mg/kg IV 2×/week) it was 14.5 ± 15.0 ng/mL; in data set [2] (8.6 mg/kg IV 2×/week) it was 31.5 ± 10.4 ng/mL; in data set [2] (9.5 mg/kg IV 2×/week) it was 19.8 ± 14.0 ng/mL. Also, the Metabolite/iniparib concentration ratio in data set [2] (5.1 mg/kg) is listed as 3.0 ± 2.0%; in data set [2] (6.1 mg/kg) it was 2.0 ± 1.5%; in data set [2] (6.8 mg/kg), 2.4 ± 1.4%; in data set [2] (8.0 mg/kg), 0.7 ± 0.7%; in data set [2] (8.6 mg/kg), 2.5 ± 1.4%; in data set [2] (9.5 mg/kg), 2.0 ± 2.0%.

As for `CN[C@@H]1C[C@H]2O[C@@](C)([C@@H]1OC)n1c3ccccc3c3c4c(c5c6ccccc6n2c5c31)C(=O)NC4` [staurosporine, reference compound], the PARP1 cleavage result in data set [8] (GSH-depleted HCT116) is given as “triggered PARP1 cleavage”. Moreover, the Trx oxidation entry in data set [8] (GSH-depleted HCT116, 7 h or 24 h, 100 μM Iniparib, 1 μM Auranofin, 100 nM Staurosporin) is recorded as “unable to induce oxidation of Trx”.
